How the values were obtained:
[1] = molecular target: T1, slowly delayed rectifier potassium channel current (IKs) (Cavia porcellus, UniProt O70344); test: whole cell patch clamp on isolated Guinea pig myocardial cells, IKs; type: cell-based; conditions: Guinea pig ventricular myocytes, current recorded 10 min after administration, 25-30° C.
T1 construct: the Guinea pig myocardial cells are separated with enzymolysis; endogenous in cells; host or cells: freshly isolated guinea pig ventricular myocytes
T1 sequence (O70344 1-671): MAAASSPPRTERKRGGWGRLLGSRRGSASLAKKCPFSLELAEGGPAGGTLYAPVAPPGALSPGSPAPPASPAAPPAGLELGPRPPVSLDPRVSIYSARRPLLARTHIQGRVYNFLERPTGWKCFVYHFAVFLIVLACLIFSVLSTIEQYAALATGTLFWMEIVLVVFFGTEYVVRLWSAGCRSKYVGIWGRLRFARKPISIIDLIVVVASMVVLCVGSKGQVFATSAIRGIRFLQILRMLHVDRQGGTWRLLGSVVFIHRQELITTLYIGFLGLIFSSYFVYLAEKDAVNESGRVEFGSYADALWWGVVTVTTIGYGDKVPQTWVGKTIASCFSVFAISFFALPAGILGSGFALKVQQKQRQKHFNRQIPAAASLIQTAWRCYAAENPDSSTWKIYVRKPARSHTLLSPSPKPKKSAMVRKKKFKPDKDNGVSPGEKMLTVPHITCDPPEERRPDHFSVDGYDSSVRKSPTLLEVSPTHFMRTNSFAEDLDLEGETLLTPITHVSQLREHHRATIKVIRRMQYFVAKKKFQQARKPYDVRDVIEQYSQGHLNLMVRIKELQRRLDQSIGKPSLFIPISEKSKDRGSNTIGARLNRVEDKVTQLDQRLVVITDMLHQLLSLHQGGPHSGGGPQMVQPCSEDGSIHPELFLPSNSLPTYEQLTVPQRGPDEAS
T1 sequence (P41686 1-245 partner): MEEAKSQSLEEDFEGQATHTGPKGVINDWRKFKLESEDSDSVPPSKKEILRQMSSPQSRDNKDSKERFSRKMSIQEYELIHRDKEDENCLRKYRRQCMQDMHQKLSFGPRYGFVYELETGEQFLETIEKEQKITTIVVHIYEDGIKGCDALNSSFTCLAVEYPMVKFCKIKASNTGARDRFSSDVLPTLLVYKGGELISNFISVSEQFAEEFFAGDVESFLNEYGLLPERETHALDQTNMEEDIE
Procedure: (§1) Experimental title: using vitro pachynsis myocardial cells of Guinea pig, the activity is determined by the whole cell membrane Patch clamp technology.
(§2) experimental mechanism: the Guinea pig myocardial cells are separated with enzymolysis, and the rapid activation component and the slowly activation component of the delayed commutating current in the cardiac muscle cells are recorded by whole cell membrane Patch clamp. Each compound is added to the perfuse liquid for measuring current after dissolved at least 10 min. The collected data is analyzed in pulse-fit, the IC50 value for IKr and IKs of each compound is calculated.
(§3) animals: Guinea pigs, male, weight 300-400 g.
(§4) solution: calcium free Tyrode's solution
(§5) pole inner solution (mmol/L): KCl 140, MgCl2 1.0, K2-ATP 4.0, EGTA 10, HEPES 5.0, pH=7.2
(§6) Experimental apparatus: Patch clamp magnifier (EPC-10, Germany), inverted microscope (TE-2000U, Nikon, Japan), microelectrode puller (PIP5, Germany), micro-manipulator (PCS-5000, Burleigh, USA).
(§7) Then, the hearts are taken off, their ventricle are cut to smash and incubated in fresh enzyme solution at 37° C., the solution is gently stirred for 5-10 min, pouring off the supernatant fluid, diluted with Tyrode's solution containing CaCl2 1 mmol/L, that is for the first cell stored liquor; with the same operation to obtain the second and the third cell storages. […] The cells are laid for 2 h before use.
(§8) the cell liquor is put into the cell pool, after the cells adhering to the wall, they are perfused with outer liquor of the cells at the rate of 2 ml/min, cells that having calcium resistance and clear transverse striations are to be selected, the poles are moved to the cell surface by tridimensional manipulator. The high resistance block are formed between the pole top and the cell surface by under pressure, and more over using reduced pressure to broking cell membrane, the pole inner liquor can be connected to the cell inner liquor so as to form the whole cell state. After the compensation to the capacitance and series impedance compensation the voltage tongs are recorded. The signal is led by Ag/AgCl pole and magnified by the Patch clamp magnifier, the computer dispenses presetting stimulate pulse by procedure and add to cells, and the electrical signal generated from cells is translated by transducer, and stored in computer. All of the stimulate signal control, electric current, data sampling and analyses are carried out by pulse V8.60. Azimilide is used as positive drugs in the research. Each test compound is dissolved in anhydrous ethanol, diluted to the same concentration by water, and added to outer cell liquor, the top concentration of ethanol is 0.1%.
(§9) Stimulate parameter: the record of IKr and IKS: the back value of the either current is recorded. Using extra-cellular fluid containing 0.1 mmol/L CdCl2 for perfusion, sustaining the voltage at −50 mV, depolarized to 60 mV, keeping for 500 ms, and sustaining the voltage at −50 mV, keeping for 1000 ms, recording IKr; and then binding the voltage at −50 mV for 1000 ms, recording IKs.

[2] = molecular target: T2, rapidly delayed rectifier potassium channel current (IKr) (Cavia porcellus, UniProt O08703); test: whole cell patch clamp on isolated Guinea pig myocardial cells, IKr; type: cell-based; conditions: Guinea pig ventricular myocytes, current recorded 10 min after administration, 25-30° C.
T2 construct: the Guinea pig myocardial cells are separated with enzymolysis; endogenous in cells; host or cells: freshly isolated guinea pig ventricular myocytes
T2 sequence (O08703 1-1294): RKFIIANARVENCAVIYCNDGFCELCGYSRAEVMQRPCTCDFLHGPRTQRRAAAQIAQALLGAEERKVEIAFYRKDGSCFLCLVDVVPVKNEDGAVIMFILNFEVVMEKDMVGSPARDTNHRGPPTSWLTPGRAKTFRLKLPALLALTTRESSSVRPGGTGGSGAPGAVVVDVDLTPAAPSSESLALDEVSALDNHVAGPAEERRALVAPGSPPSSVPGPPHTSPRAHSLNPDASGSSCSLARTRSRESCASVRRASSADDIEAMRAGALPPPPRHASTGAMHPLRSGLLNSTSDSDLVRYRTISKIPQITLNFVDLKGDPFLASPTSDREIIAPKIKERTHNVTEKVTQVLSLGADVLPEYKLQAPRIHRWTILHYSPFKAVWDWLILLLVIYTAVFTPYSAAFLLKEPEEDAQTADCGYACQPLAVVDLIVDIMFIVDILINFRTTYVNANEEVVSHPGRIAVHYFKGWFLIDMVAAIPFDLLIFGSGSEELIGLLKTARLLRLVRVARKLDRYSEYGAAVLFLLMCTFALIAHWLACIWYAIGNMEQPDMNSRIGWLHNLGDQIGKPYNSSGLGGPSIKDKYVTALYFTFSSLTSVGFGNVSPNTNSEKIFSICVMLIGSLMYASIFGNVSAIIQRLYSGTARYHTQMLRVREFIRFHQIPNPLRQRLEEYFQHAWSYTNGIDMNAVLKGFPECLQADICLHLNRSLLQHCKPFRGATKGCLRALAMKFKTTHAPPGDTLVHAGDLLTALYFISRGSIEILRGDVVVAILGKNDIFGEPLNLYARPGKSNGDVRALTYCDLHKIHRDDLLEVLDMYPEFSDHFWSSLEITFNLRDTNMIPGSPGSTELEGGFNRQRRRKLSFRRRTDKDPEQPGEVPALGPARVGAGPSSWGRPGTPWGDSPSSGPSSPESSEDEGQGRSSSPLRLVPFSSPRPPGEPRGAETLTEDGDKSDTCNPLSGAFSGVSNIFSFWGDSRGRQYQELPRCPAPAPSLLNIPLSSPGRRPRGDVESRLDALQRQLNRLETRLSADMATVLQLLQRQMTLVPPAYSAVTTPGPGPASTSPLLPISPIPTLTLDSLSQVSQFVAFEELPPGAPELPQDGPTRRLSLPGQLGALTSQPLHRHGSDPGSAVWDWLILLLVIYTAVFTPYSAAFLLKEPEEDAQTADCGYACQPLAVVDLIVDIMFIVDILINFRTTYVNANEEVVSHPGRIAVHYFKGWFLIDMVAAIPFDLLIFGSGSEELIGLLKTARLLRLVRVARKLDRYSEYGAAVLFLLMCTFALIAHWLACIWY
Procedure: as §1, §2, §3, §4, §5, §6, §7, §8, §9

## CCCCOc1ccc2c(c1)/C(=N/N1CC(=O)N(CCCCN3CCN(C)CC3)C1=O)CCO2.O=C(O)/C=C/C(=O)O [Ib example 4, 1-[4-(2,3-dihydro-6-butoxy)benzopyran]imino-3-[4-(methyl-1-piperazine)butyl]-2,4-imidazole dione difumarate]
[1]
  IC50: 22 nM
[2]
  IC50: 180 nM
other
  melting point: 208 to 210 °C

## Cc1ccc2c(c1)/C(=N/N1CC(=O)N(CCCCN3CCN(C)CC3)C1=O)CCO2.O=C(O)/C=C/C(=O)O
other
  melting point: 231 to 233 °C

## CCCOc1ccc2c(c1)/C(=N/N1CC(=O)N(CCCN3CCN(C)CC3)C1=O)CCO2 [Ib example 10, 1-[4-(2,3-dihydro-6-propoxy-)benzopyran]imino-3-[3-(4-methylpiperazine-1-yl)propyl]-2,4-imidazole dione difumarate]
[1]
  IC50: 9.5 nM
[2]
  IC50: 106 nM

## Cc1ccc2c(c1)/C(=N/N1CC(=O)N(CCCN3CCN(C)CC3)C1=O)CCO2 [Ia example 9, 1-[4-(2,3-dihydro-6-methyl)benzopyran]imino-3-[3-(4-methylpiperazine-1-)propyl]-2,4-imidazole dione difumarate]
[1]
  IC50: 304 nM
[2]
  IC50: 619 nM

## COc1ccc2c(c1)/C(=N/N1CC(=O)N(CCCCN3CCCCC3)C1=O)CCO2 [Ia example 5, 1-[4-(2,3-dihydro-6-methoxy)benzopyran]imino-3-(4-piperidine) butyl-2,4-imidazole dione]
[1]
  IC50: 22000 nM
[2]
  IC50: 7470 nM

## CCOc1ccc2c(c1)/C(=N/N1CC(=O)N(CCCN3CCN(C)CC3)C1=O)CCO2 [Ib example 9, 1-[4-(2,3-dihydro-6-ethoxy)benzopyran]imino-3-[3-(4-methylpiperazine-1-yl)propyl]-2,4-imidazole dione difumarate]
[1]
  IC50: 26.9 nM
[2]
  IC50: 4340 nM

## Cc1ccc2c(c1)/C(=N/N1CC(=O)N(CCCCN3CCCCC3)C1=O)CCO2 [Ia example 7, 1-[4-(2,3-dihydro-6-methyl)benzopyran]imino-3-(4-piperidine) butyl-2,4-imidazole dione]
[1]
  IC50: 18900 nM
[2]
  IC50: 22000 nM

## COc1ccc2c(c1)/C(=N/N1CC(=O)N(CCCCN3CCN(C)CC3)C1=O)CCO2.O=C(O)/C=C/C(=O)O [Ia example 1, 1-[4-(2,3-dihydro-6-methoxy)benzopyran]imino-3-[4-(methyl-1-piperazine)butyl]-2,4-imidazole dione difumarate]
[1]
  IC50: 650 nM
[2]
  IC50: 1010 nM
other
  melting point: 208 to 210 °C

## CN1CCN(CCCCN2C(=O)CN(/N=C3\CCOc4ccc(Cl)cc43)C2=O)CC1.O=C(O)/C=C/C(=O)O [Ia example 2, 1-[4-(2,3-dihydro-6-chloro)benzopyran]imino-3-[4-(methyl-1-piperazine)butyl]-2,4-imidazole dione difumarate]
[1]
  IC50: 73 nM
[2]
  IC50: 4700 nM
other
  melting point: 230 to 232 °C

## CCOc1ccc2c(c1)/C(=N/N1CC(=O)N(CCCCN3CCCCC3)C1=O)CCO2 [Ib example 5, 1-[4-(2,3-dihydro-6-ethoxy)benzopyran]imino-3-(4-piperidine) butyl-2,4-imidazole dione]
[1]
  IC50: 1040 nM
[2]
  IC50: 450 nM

## O=C1CN(/N=C2\CCOc3ccc(Cl)cc32)C(=O)N1CCCCN1CCCCC1 [Ia example 6, 1-[4-(2,3-dihydro-6-chloro)benzopyran]imino-3-(4-piperidine) butyl-2,4-imidazole dione]
[1]
  IC50: 61000 nM
[2]
  IC50: 6.2 nM

## CCCOc1ccc2c(c1)/C(=N/N1CC(=O)N(CCCCN3CCCCC3)C1=O)CCO2 [Ib example 6, 1-[4-(2,3-dihydro-6-propoxy-)benzopyran]imino-3-(4-piperidine) butyl-2,4-imidazole dione]
[1]
  IC50: 3.2 nM
[2]
  IC50: 400 nM

## CCOc1ccc2c(c1)/C(=N/N1CC(=O)N(CCCCN3CCN(C)CC3)C1=O)CCO2.O=C(O)/C=C/C(=O)O
other
  melting point: 225 to 227 °C

## COc1ccc2c(c1)/C(=N/N1CC(=O)N(CCCN3CCN(C)CC3)C1=O)CCO2 [Ia example 8, 1-[4-(2,3-dihydro-6-methoxy)benzopyran]imino-3-[3-(4-methylpiperazine-1-yl)propyl]-2,4-imidazole dione difumarate]
[1]
  IC50: 1.9 nM
[2]
  IC50: 540 nM

## CN1CCN(CCCCN2C(=O)CN(/N=C3\CCOc4ccc(O)cc43)C2=O)CC1.O=C(O)/C=C/C(=O)O
other
  melting point: 203 to 205 °C

## CN1CCN(CCCN2C(=O)CN(N=C3CCOc4ccc(Cl)cc43)C2=O)CC1 [Ia example 10, 1-[4-(2,3-dihydro-6-chlorine)benzopyran]imino-3-[3-(4-methylpiperazine-1-yl)propyl]-2,4-imidazole dione difumarate]
[1]
  IC50: 5.8 nM
[2]
  IC50: 3870 nM

## CCCCOc1ccc2c(c1)/C(=N/N1CC(=O)N(CCCCN3CCCCC3)C1=O)CCO2 [Ib example 7, 1-[4-(2,3-dihydro-6-butoxy)benzopyran]imino-3-(4-piperidine) butyl-2,4-imidazole dione]
[1]
  IC50: 1030 nM
[2]
  IC50: 17.4 nM

— US7772230B2, “Chroman compound, processes for its preparation, and its pharmaceutical use” (China Pharmaceutical University, priority 2006, dated 2010)
